{"source": "patent US4748153A", "about": "“Compounds having somatostatin-like activity useful as local anti-inflammatory agents” (Merck & Co., Inc., priority 1987, dated 1988)", "key": {"[1]": {"tested_on": "inhibition of growth hormone, insulin and glucogen secretion", "assay": "Potency relative to somatostatin (SRIF)", "conditions": "SRIF assigned a value of 1, based upon inhibition of growth hormone", "protocol": "(§1) Following the same procedure as described above for Assay 1, additional compounds were tested for local; i.e., topical, anti-inflammatory activity. […] In Table IV, the potency of each compound tested relative to that of somatostatin is also shown, the somatostatin (SRIF) potency being assigned a value of 1 and based upon its inhibition of growth hormone, insulin and glucogen secretion."}, "[2]": {"tested_on": "cellular proliferation (granuloma)", "assay": "Pellet granuloma assay, compound applied locally to subcutaneously implanted pellets (Assays 1, 2, 4)", "format": "in vivo, rats (Charles River-CD)", "conditions": "for Body Wt. Change: Assay 2; for Granulosimer Net weight: Assay 1, six animals per group, 7 days, ± 2 S.E. of mean", "protocol": "The assay method employed to test the Formula I, II, III, IV and V compounds as local anti-inflammatory agents is a modification of the method described by S. L. Steelman, et al. [Steroids, 1, 163 (1963)] as follows:\n(§2) Male rats (Charles River-CD) of about 150-160 grams in weight were subcutaneously implanted in the abdominal area with two pellets each. Five animals were used per group. The pellets used were preweighed and all used in a given assay were ±1 mg from one another. The compounds were dissolved in absolute ethanol and the indicated dose applied to each pellet in 0.2 ml. The alcohol was removed in vacuo overnight. Just prior to implantation, each pellet was moistened with 0.2 ml of 0.9% saline containing 1 mg each of penicillin and streptomycin. After seven days, the pellets were dissected out together with adhering granulomatous tissue. After drying in a vacuum oven overnight at 60°-65° C., the pellets were weighed. The difference in weight between the original pellet weight and the implanted pellet weight was used as a measure of cellular proliferation (granuloma). The lower the net weight, the more anti-inflammatory activity.\nFollowing the procedure of the Assay Method described above, somatostatin (SRIF) was tested for its anti-inflammatory activity. The structure of somatostatin is: [drawing 5]\nSix animals per group were used in this test and the results obtained are shown in Table I below wherein hydrocortisone was used as a positive control:\nThe results obtained following the Assay Method described above using Compound 8 of Formula I are shown below in Table II wherein hydrocortisone was used as a positive control.\nas §1"}, "[3]": {"tested_on": "cellular proliferation (granuloma)", "assay": "Pellet granuloma assay, compounds administered subcutaneously as saline injections (Assay 3)", "format": "in vivo, rats (Charles River-CD)", "protocol": "as §2\nFollowing the procedure described above for Assau 1, additional tests were conducted except that the compounds were administered subcutaneously as saline injections. The tests were carried out on six animals per group and the results obtained are shown below in Table III."}, "[4]": {"conditions": "administered subcutaneously, Table III"}}, "note": "Residues, ends and D or L forms follow the SMILES beside them.", "data": [{"smiles": "CC(C)[C@@H]1NC(=O)[C@H](CCCCN)NC(=O)[C@@H](Cc2c[nH]c3ccccc23)NC(=O)[C@H](Cc2ccc(O)cc2)NC(=O)[C@H](C)N(C)C(=O)[C@H](Cc2c[nH]c3ccccc23)NC1=O", "note": "[9/I, Cyclo-(N-Me-Ala-Tyr-D-Trp-Lys-Val-Trp)] (HELM PEPTIDE1{K.V.W.[meA].Y.[dW]}$PEPTIDE1,PEPTIDE1,1:R1-6:R2$$$V2.0)", "values": [{"measurement": "Potency Relative to Somatostatin (SRIF)", "setting": "[1]", "result": "20-35"}]}, {"smiles": "CC(C)[C@@H]1NC(=O)[C@H](CCCCN)NC(=O)[C@H](Cc2c[nH]c3ccccc23)NC(=O)[C@H](Cc2ccc(O)cc2)NC(=O)[C@H](C)N(C)C(=O)[C@H](Cc2ccccc2)NC1=O", "note": "[10/I, Cyclo-(N-Me-Ala-Tyr-L-Trp-Lys-Val-Phe)]", "values": [{"measurement": "Potency Relative to Somatostatin (SRIF)", "setting": "[1]", "result": 50}]}, {"smiles": "C[C@@H]1NC(=O)[C@H](CO)NC(=O)[C@H](CCCCN)NC(=O)[C@@H](Cc2c[nH]c3ccccc23)NC(=O)[C@H](Cc2c[nH]cn2)NC(=O)[C@H](Cc2ccccc2)N(C)C1=O", "note": "[11/I, Cyclo-(Ser-Ala-N-Me-Phe-His-D-Trp-Lys)] (HELM PEPTIDE1{A.[meF].H.[dW].K.S}$PEPTIDE1,PEPTIDE1,1:R1-6:R2$$$V2.0)", "values": [{"measurement": "Potency Relative to Somatostatin (SRIF)", "setting": "[1]", "result": 200}]}, {"smiles": "C[C@@H](O)[C@@H]1NC(=O)[C@H](CCCCN)NC(=O)[C@@H](Cc2c[nH]c3ccccc23)NC(=O)[C@H](Cc2ccccc2)NC(=O)[C@@H]2CCCN2C(=O)[C@H](Cc2ccccc2)NC1=O", "note": "[13/II, Cyclo-(Pro-Phe-D-Trp-Lys-Thr-Phe)] (HELM PEPTIDE1{P.F.[dW].K.T.F}$PEPTIDE1,PEPTIDE1,1:R1-6:R2$$$V2.0)", "values": [{"measurement": "Potency Relative to Somatostatin (SRIF)", "setting": "[1]", "result": 6}]}, {"smiles": "CC(C)[C@@H]1NC(=O)[C@H](CCCCN)NC(=O)[C@@H](Cc2c[nH]c3ccccc23)NC(=O)[C@H](Cc2ccc(O)cc2)NC(=O)[C@H](C)N(C)C(=O)[C@H](Cc2ccccc2)NC1=O", "note": "[Compound 8 of Formula I, Cyclo-(N-Me-Ala-Tyr-D-Trp-Lys-Val-Phe)]", "values": [{"measurement": "Body Wt. Change", "setting": "[2]; 10 mcg/pellet", "result": "+43 gm"}, {"measurement": "Body Wt. Change", "setting": "[2]; 100 mcg/pellet", "result": "+40 gm"}, {"measurement": "anti-inflammatory activity (in words)", "setting": "[2]; doses of 100-200 micrograms per pellet, Table II", "result": "significant activity"}, {"measurement": "Potency Relative to Somatostatin (SRIF)", "setting": "[1]", "result": "50-100"}, {"measurement": "effect on adrenal weight (in words)", "setting": "[3]; [4]", "result": "slight decrease in the adrenal weight"}, {"measurement": "anti-inflammatory activity (in words)", "setting": "[3]; administered systemically, i.e., subcutaneously", "result": "no anti-inflammatory activity"}, {"measurement": "Avg. Adrenal wt.", "setting": "[3]; daily dose 200 mcg subcutaneously, ± S.E. of mean", "result": "36 ± 2", "unit": "mg"}]}, {"smiles": "C[C@]12CCC(=O)C=C1CC[C@@H]1[C@@H]2[C@@H](O)C[C@@]2(C)[C@H]1CC[C@]2(O)C(=O)CO", "note": "[Hydrocortisone, hydrocortisone]", "values": [{"measurement": "Body Wt. Change", "setting": "[2]; 200 mcg/pellet", "result": "+44 gm"}, {"measurement": "Granulosimer Net weight", "setting": "[2]; 300 mcg/pellet", "result": "24 ± 2", "unit": "mg"}, {"measurement": "Body Wt. Change", "setting": "[2]; 1000 mcg/pellet", "result": "+41 gm"}, {"measurement": "activity (in words)", "setting": "[3]; [4]", "result": "typical activity"}]}, {"smiles": "C[C@H](N)C(=O)NCC(=O)N[C@H]1CSSC[C@@H](C(=O)O)NC(=O)[C@H](CO)NC(=O)[C@H]([C@@H](C)O)NC(=O)[C@H](Cc2ccccc2)NC(=O)[C@H]([C@@H](C)O)NC(=O)[C@H](CCCCN)NC(=O)[C@H](Cc2c[nH]c3ccccc23)NC(=O)[C@H](Cc2ccccc2)NC(=O)[C@H](Cc2ccccc2)NC(=O)[C@H](CC(N)=O)NC(=O)[C@H](CCCCN)NC1=O", "note": "[SRIF, somatostatin]", "values": [{"measurement": "Granulosimer Net weight", "setting": "[2]; 1500 mcg/pellet", "result": "25 ± 1", "unit": "mg"}, {"measurement": "anti-inflammatory activity (in words)", "setting": "[2]; Assay 1, Table I, on pellet", "result": "effective anti-inflammatory agent"}, {"measurement": "Potency Relative to Somatostatin (SRIF)", "setting": "[1]", "result": 1}]}]}
